Results on 5 compounds are retold here after patent publication US20170291875A1, “QUINOLONES AS INHIBITORS OF CLASS IV BROMODOMAIN PROTEINS” (UCL BUSINESS PLC, priority 2014, published 2017).

One may read the pKd as −log10 of the Kd, conventionally taken in molar units. A high value points to a small Kd.

Molecules are shown by their SMILES. pKd: −log10 of the molar value.

The target of experiment [1] is T1, BRPF1B (Homo sapiens, UniProt P55201).
T1 construct: purchased DiscoveRx (BROMOscan platform); host or cells: E. coli host derived from BL21 (T7 phage)
T1 sequence (P55201 628-732 limits assumed): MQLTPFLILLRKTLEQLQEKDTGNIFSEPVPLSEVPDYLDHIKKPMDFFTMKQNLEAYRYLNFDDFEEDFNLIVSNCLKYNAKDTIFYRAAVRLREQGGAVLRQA
The experiment is described as follows: BROMOscan bromodomain competitive binding assay (DiscoveRx), BRPF1B. To be noted: BROMOscan platform, n = 2 unless cell says n = 4. As to the method:
(§1) Compounds were tested using the commercially available BROMOscan™ Platform (DiscoveRx): http://www.discoverx.com/technologies-platforms/competitive-binding-technology/bromoscan-technology-platform/bromoscan-assay-process.
(§2) Bromodomain assays. T7 phage strains displaying bromodomains were grown in parallel in 24-well blocks in an E. coli host derived from the BL21 strain. E. coli were grown to log-phase and infected with T7 phage from a frozen stock (multiplicity of infection=0.4) and incubated with shaking at 32° C. until lysis (90-150 minutes). The lysates were centrifuged (5,000×g) and filtered (0.2 μm) to remove cell debris. […] The liganded beads were blocked with excess biotin and washed with blocking buffer (SeaBlock (Pierce), 1% BSA, 0.05% Tween 20, 1 mM DTT) to remove unbound ligand and to reduce non-specific phage binding. […] Test compounds were prepared as 1000× stocks in 100% DMSO and subsequently diluted 1:10 in monoethylene glycol (MEG) to create stocks at 100× the screening concentration (resulting stock solution is 10% DMSO/90% MEG). The compounds were then diluted directly into the assays such that the final concentration of DMSO and MEG were 0.1% and 0.9%, respectively. All reactions were performed in polystyrene 96-well plates in a final volume of 0.135 ml. […] The bromodomain concentration in the eluates was measured by qPCR.
(§3) An 11-point 3-fold serial dilution of each test compound was prepared in 100% DMSO at 1000× final test concentration. This serial is then diluted to 100× in ethylene glycol and subsequently diluted to 1× in the assay (final DMSO concentration=0.1%, Ethylene glycol concentration=0.9%). Most Kds were determined using a compound top concentration=10,000 nM.
(§4) Binding constants (Kds) were calculated with a standard dose-response curve using the Hill equation: […]
(§5) The Hill Slope was set to −1. Curves were fitted using a non-linear least square fit with the Levenberg-Marquardt algorithm.
(§6) BROMOscan™ uses the same assay technology as KINOMEscan™. For a more detailed description of this assay technology, see Fabian et al.12

Experiment [2] concerns the target T2, BRD1 (Homo sapiens, UniProt O95696).
T2 construct: purchased DiscoveRx (BROMOscan platform); host or cells: E. coli host derived from BL21 (T7 phage)
T2 sequence (O95696 562-666 limits assumed): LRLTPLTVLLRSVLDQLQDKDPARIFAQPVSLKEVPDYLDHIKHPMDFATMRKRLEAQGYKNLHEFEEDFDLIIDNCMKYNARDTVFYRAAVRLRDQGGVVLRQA
The experiment is described as follows: BROMOscan bromodomain competitive binding assay (DiscoveRx), BRD1. To be noted: BROMOscan platform, n = 2. The method, then:
as §1, §2, §3, §4, §5, §6

The target of experiment [3] is T3, BRPF3 (Homo sapiens, UniProt Q9ULD4).
T3 construct: purchased DiscoveRx (BROMOscan platform); host or cells: E. coli host derived from BL21 (T7 phage)
T3 sequence (Q9ULD4 589-693 limits assumed): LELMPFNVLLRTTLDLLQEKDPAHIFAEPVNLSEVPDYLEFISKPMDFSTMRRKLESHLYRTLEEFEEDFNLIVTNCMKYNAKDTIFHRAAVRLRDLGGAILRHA
The experiment is described as follows: BROMOscan bromodomain competitive binding assay (DiscoveRx), BRPF3. Conditions: BROMOscan platform, n = 2. As to the method: as §1, §2, §3, §4, §5, §6

Experiment [4] deals with T4, BRD9 (Homo sapiens, UniProt Q9H8M2).
T4 construct: purchased DiscoveRx (BROMOscan platform); host or cells: E. coli host derived from BL21 (T7 phage)
T4 sequence (Q9H8M2 136-240 limits assumed): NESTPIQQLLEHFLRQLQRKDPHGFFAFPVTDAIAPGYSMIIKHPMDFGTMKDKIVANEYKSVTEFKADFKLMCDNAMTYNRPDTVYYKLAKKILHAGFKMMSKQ
The experiment is described as follows: BROMOscan bromodomain competitive binding assay (DiscoveRx), BRD9. Conditions: BROMOscan platform, n = 2. The method, then: as §1, §2, §3, §4, §5, §6

Experiment [5] addresses T5, BRD7 (Homo sapiens, UniProt Q9NPI1).
T5 construct: purchased DiscoveRx (BROMOscan platform); host or cells: E. coli host derived from BL21 (T7 phage)
T5 sequence (Q9NPI1 131-235 limits assumed): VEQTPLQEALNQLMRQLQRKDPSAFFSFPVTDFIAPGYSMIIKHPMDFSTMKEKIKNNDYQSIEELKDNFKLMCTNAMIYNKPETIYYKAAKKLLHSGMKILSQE
The experiment is described as follows: BROMOscan bromodomain competitive binding assay (DiscoveRx), BRD7. To be noted: BROMOscan platform, n = 2. The method, then: as §1
Bromodomain assays. T7 phage strains displaying bromodomains were grown in parallel in 24-well blocks in an E. coli host derived from the BL21 strain. E. coli were grown to log-phase and infected with T7 phage from a frozen stock (multiplicity of infection=0.4) and incubated with shaking at 32° C. until lysis (90-150 minutes). The lysates were centrifuged (5,000×g) and filtered (0.2 μm) to remove cell debris. […] The liganded beads were blocked with excess biotin and washed with blocking buffer (SeaBlock (Pierce), 1% BSA, 0.05% Tween 20, 1 mM DTT) to remove unbound ligand and to reduce non-specific phage binding. […] The bromodomain concentration in the eluates was measured by qPCR.
An 11-point 3-fold serial dilution of each test compound was prepared in 100% DMSO at 1000× final test concentration. […] Most Kds were determined using a compound top concentration=10,000 nM.
as §4

With `Cc1cc2cc(NS(=O)(=O)c3ccc(C#N)cc3)ccc2n(C)c1=O` [Compound 19, 4-cyano-N-(1,3-dimethyl-2-oxo-1,2-dihydroquinolin-6-yl)benzenesulfonamide], the pKd in experiment [1] is 8.10; in experiment [2], 7.32; in experiment [3], 6.59; in experiment [4] it was 6.51; in experiment [5], 7.09.

Take `COc1cc2c(cc1NS(=O)(=O)c1ccc(C#N)cc1OC)cc(C)c(=O)n2C` [Compound 27, 4-cyano-2-methoxy-N-(7-methoxy-1,3-dimethyl-2-oxo-1,2-dihydroquinolin-6-yl)benzenesulfonamide]: the pKd in experiment [1] was 7.92; in experiment [2], 7.10; in experiment [3], 6.72; in experiment [4], 6.77.

As to `Cn1c(=O)ccc2cc(NS(=O)(=O)c3ccc(C#N)cc3)ccc21` [Compound 4, 4-cyano-N-(1-methyl-2-oxo-1,2-dihydroquinolin-6-yl)benzenesulfonamide], the pKd in experiment [1] is 7.37; in experiment [2] it was 6.70; in experiment [3], 6.00; in experiment [4], 6.04.

Turning to `COc1cc2c(cc1NS(=O)(=O)c1ccc(C#N)cc1)c(C)cc(=O)n2C` [Compound 33, 4-cyano-N-(7-methoxy-1,4-dimethyl-2-oxo-1,2-dihydroquinolin-6-yl)benzenesulfonamide], the pKd in experiment [1] was 7.22; in experiment [2] it was 5.74; in experiment [3], 5.03; in experiment [4], 6.05; in experiment [5], 4.68.

As to `COc1cc2c(ccc(=O)n2C)cc1NS(=O)(=O)c1ccc(C#N)cc1` [Compound 11, 4-cyano-N-(7-methoxy-1-methyl-2-oxo-1,2-dihydroquinolin-6-yl)benzenesulfonamide], the pKd in experiment [1] was 7.28; in experiment [2], 6.28; in experiment [3], 5.66; in experiment [4], 5.57.
